Calls of active or inactive are those of the source. The rule behind the calls is not given here.
How the values were obtained:
[1] = system: WI-38; test: Cytotoxicity against human WI-38 cells assessed as reduction in cell viability by MTT assay; format: cell-based; settings: for IC50: Homo sapiens, WI-38; for EC100: human, wi-38
[2] = Anticancer activity against […] cells assessed as reduction in cell viability by MTT assay; format: functional, cell-based; settings: Mus musculus
[3] = system: HepG2; test: Anticancer activity against human HepG2 cells assessed as reduction in cell viability by MTT assay; format: functional, cell-based
[4] = system: MCF7; test: cells; settings: Homo sapiens
Description: Anticancer activity against human MCF7 cells assessed as reduction in cell viability by MTT assay

[5] = in vitro; settings: human, WI38 cells and HepG2 cells
Description: Selectivity index, ratio of IC50 for human WI38 cells to IC50 for human HepG2 cells

[6] = system: HepG2; test: Induction of apoptosis in human HepG2 cells assessed as increase in caspase-3/7 activation by flow cytometric analysis; format: functional
[7] = system: MCF7; test: Induction of apoptosis in human MCF7 cells assessed as increase in caspase-3/7 activation by flow cytometric analysis; format: functional
[8] = Induction of apoptosis in […] cells assessed as increase in caspase-3/7 activation by flow cytometric analysis; format: functional, Mus musculus
[9] = system: MCF7; test: Induction of cell morphological changes in human MCF7 cells assessed as loss in cell shape by microscopic analysis; format: functional, cell-based
[10] = system: NFS-60; test: Induction of cell morphological changes in […] cells assessed as loss in cell shape by microscopic analysis; format: functional, cell-based; settings: Mus musculus
[11] = system: HepG2; test: Induction of cell morphological changes in human HepG2 cells assessed as loss in cell shape by microscopic analysis; format: functional, cell-based
[12] = system: MCF7; test: Induction of apoptosis in human MCF-7 cells assessed as early apoptosis by annexinV/propidium iodide staining based by flow cytometry (reference value: 0.47+/- 0.01%); format: functional
[13] = system: MCF7; test: Induction of apoptosis in human MCF-7 cells assessed as late apoptosis by annexinV/propidium iodide staining based by flow cytometry (reference value: 0.01+/- 0.001%); format: functional
[14] = system: MCF7; test: Induction of apoptosis in human MCF-7 cells assessed as total apoptosis by annexin V/propidium iodide staining based by flow cytometry (reference value: 0.48+/- 0.01%); format: functional
[15] = Induction of apoptosis in […] cells assessed as early apoptosis by annexinV/propidium iodide staining based by flow cytometry (reference value: 0.02+/- 0.01%); format: functional, Mus musculus
[16] = Induction of apoptosis in […] cells assessed as late apoptosis by annexinV/propidium iodide staining based by flow cytometry (reference value: 0.015+/- 0.01%); format: functional, Mus musculus
[17] = Induction of apoptosis in […] cells assessed as total apoptosis by annexinV/propidium iodide staining based by flow cytometry (reference value: 0.495+/- 0.01%); format: functional, Mus musculus
[18] = system: HepG2; test: Induction of apoptosis in human HepG2 cells assessed as early apoptosis by annexinV/propidium iodide staining based by flow cytometry (reference value: 0.78+/- 0.09%); format: functional
[19] = system: HepG2; test: Induction of apoptosis in human HepG2 cells assessed as late apoptosis by annexinV/propidium iodide staining based by flow cytometry (reference value: 0.1+/- 0.001%); format: functional
[20] = system: HepG2; test: Induction of apoptosis in human HepG2 cells assessed as total apoptosis by annexin/propidium iodide staining based by flow cytometry (reference value: 0.169+/- 0.02%); format: functional
[21] = biological target: Matrix metalloproteinase-9 (Homo sapiens, UniProt P14780); test: Inhibition of MMP-9 (unknown origin) by colorimetric assay
Chain of Matrix metalloproteinase-9 (P14780 whole entry): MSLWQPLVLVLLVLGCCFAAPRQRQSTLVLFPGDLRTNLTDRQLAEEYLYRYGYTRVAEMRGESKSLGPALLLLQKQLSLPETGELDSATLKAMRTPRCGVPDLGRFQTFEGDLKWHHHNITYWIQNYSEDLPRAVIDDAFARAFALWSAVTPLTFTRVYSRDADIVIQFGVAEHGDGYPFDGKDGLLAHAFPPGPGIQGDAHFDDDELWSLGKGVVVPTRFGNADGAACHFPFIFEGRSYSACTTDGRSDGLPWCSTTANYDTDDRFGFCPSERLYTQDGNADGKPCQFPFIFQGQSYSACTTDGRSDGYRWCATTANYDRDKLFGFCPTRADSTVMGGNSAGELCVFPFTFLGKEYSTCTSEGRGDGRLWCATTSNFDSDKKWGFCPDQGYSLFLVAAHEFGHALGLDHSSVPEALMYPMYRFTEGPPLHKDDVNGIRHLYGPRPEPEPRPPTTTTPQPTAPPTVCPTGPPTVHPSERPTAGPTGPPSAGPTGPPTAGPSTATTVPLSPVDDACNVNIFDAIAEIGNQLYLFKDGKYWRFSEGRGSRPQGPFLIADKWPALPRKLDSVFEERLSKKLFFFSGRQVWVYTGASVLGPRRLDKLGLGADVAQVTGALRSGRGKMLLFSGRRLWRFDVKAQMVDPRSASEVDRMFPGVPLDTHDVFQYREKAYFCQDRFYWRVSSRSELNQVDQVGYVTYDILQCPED

[22] = biological target: 72 kDa type IV collagenase (Homo sapiens, UniProt P08253); test: Inhibition of MMP-2 (unknown origin) by colorimetric assay
Chain of 72 kDa type IV collagenase (P08253 whole entry): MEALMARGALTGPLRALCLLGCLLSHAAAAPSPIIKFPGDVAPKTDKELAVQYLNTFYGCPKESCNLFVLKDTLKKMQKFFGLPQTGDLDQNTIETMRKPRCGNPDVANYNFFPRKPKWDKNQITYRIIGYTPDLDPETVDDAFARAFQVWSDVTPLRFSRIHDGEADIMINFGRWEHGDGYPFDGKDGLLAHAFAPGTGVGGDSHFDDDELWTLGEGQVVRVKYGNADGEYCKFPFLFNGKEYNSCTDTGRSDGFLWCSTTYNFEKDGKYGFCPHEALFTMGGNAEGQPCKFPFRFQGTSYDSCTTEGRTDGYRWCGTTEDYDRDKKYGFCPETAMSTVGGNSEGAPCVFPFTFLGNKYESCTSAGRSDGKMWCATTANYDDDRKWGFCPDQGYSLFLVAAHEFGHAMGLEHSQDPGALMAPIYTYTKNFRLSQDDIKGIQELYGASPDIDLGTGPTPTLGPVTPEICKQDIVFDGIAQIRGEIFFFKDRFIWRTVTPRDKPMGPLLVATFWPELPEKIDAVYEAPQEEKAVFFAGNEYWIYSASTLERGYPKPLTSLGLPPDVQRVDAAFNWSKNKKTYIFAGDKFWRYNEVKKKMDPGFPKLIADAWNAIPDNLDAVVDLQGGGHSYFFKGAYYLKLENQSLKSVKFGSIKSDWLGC

[23] = biological target: Collagenase 3 (Homo sapiens, UniProt P45452); test: Inhibition of MMP-13 (unknown origin) by colorimetric assay

IC50 [3] [nM]	IC50 [4] [nM]	Compound	IC50 [1] [nM]	EC100 [1] [nM]	IC50 [2] [nM]	selectivity ratio [5]	further results
68.8	14.8	O=C(Nc1ccc([N+](=O)[O-])cc1)C(c1ccccc1[N+](=O)[O-])N(C(=O)C(F)(F)F)c1ccccc1 (centres undefined)	348	112.4	52.6	5.06	–
107	55.8	O=CN(c1ccccc1)C(C(=O)Nc1ccc([N+](=O)[O-])cc1)c1ccccc1 (centres undefined)	543	161.5	94.1	5.09	–
35.9	18	CC(C)(C)OC(=O)NCC(=O)N(c1ccccc1)C(C(=O)Nc1ccc([N+](=O)[O-])cc1)c1ccccc1 (centres undefined)	42.9	18.2	31.9	1.2	–
152	165	NCC(=O)N(c1ccccc1)C(C(=O)Nc1ccc([N+](=O)[O-])cc1)c1ccccc1 (centres undefined)	218	84.9	168	1.44	–
111	122	Cc1ccc(N(C(=O)c2ccc(Br)cc2)C(C(=O)Nc2ccc([N+](=O)[O-])cc2)c2ccccc2)cc1 (centres undefined)	260	36.1	121	2.34	–
138	168	O=C(Nc1ccc([N+](=O)[O-])cc1)C(c1ccccc1)N(C(=O)c1ccccc1[N+](=O)[O-])c1cccc(Br)c1 (centres undefined)	199	89.7	156	1.44	–
17.8	26.4	O=C(Nc1ccc([N+](=O)[O-])cc1)C(c1ccccc1)N(C(=O)Cc1ccccc1)c1ccccc1 (centres undefined)	819	290.7	17.6	46	–
–	–	COc1cccc2c1C(=O)c1c(O)c3c(c(O)c1C2=O)C[C@@](O)(C(=O)CO)C[C@@H]3O[C@H]1C[C@H](N)[C@H](O)[C@H](C)O1 [DOXORUBICIN]	–	12.1	13	–	Activity [6]: 48.09%; Activity [7]: 42.94%; Activity [8]: 45.39%; Activity [9]: Active; Activity [10]: Active; Activity [11]: Active; Activity [12]: 13.53%; Activity [13]: 20.445%; Activity [14]: 33.974%; Activity [15]: 11.379%; Activity [16]: 23.215%; Activity [17]: 34.595%; Activity [18]: 10.59%; Activity [19]: 25.49%; Activity [20]: 36.08%
50.7	64	Cc1ccc(N(C(=O)c2ccc(Cl)cc2)C(C(=O)Nc2ccc([N+](=O)[O-])cc2)c2ccccc2)cc1 (centres undefined)	42.7	18.25	54.2	0.842	–
435	184	O=C(Nc1ccc([N+](=O)[O-])cc1)C(c1ccccc1[N+](=O)[O-])N(C(=O)c1ccccc1[N+](=O)[O-])c1ccccc1 (centres undefined)	360	198.9	208	0.828	–
–	–	COc1ccc(S(=O)(=O)N(CC(=O)NO)CC(C)C)cc1	–	–	–	–	IC50 [21]: 78.5 nM; IC50 [22]: 69 nM; IC50 [23]: 131 nM
21.2	26.9	O=C(Nc1ccc([N+](=O)[O-])cc1)C(c1ccccc1)N(C(=O)c1ccc([N+](=O)[O-])cc1)c1ccccc1 (centres undefined)	1200	469.8	12.1	56.7	–
30.9	11	O=C(Nc1ccc([N+](=O)[O-])cc1)C(c1ccccc1)N(C(=O)C(Cl)(Cl)Cl)c1ccccc1 (centres undefined)	4560	1912	22.8	148	–
41.8	33.1	O=C(Nc1ccc([N+](=O)[O-])cc1)C(c1ccccc1)N(C(=O)c1ccccc1[N+](=O)[O-])c1ccccc1 (centres undefined)	422	130.2	29.4	10.1	–
74.6	104	Cc1ccc(N(C(=O)c2ccc([N+](=O)[O-])cc2)C(C(=O)Nc2ccc([N+](=O)[O-])cc2)c2ccccc2)cc1 (centres undefined)	182	113.6	92.3	2.44	–
187	203	O=C(Nc1ccc([N+](=O)[O-])cc1)C(c1ccc([N+](=O)[O-])cc1)N(C(=O)c1ccc([N+](=O)[O-])cc1)c1ccccc1 (centres undefined)	143	82.4	189	0.768	–
180	309	CC(=O)N(c1ccccc1)C(C(=O)Nc1ccc([N+](=O)[O-])cc1)c1ccccc1 (centres undefined)	509	301	287	2.83	–
159	172	O=C(Nc1ccc([N+](=O)[O-])cc1)C(c1ccc([N+](=O)[O-])cc1)N(C(=O)c1ccccc1[N+](=O)[O-])c1ccccc1 (centres undefined)	210	158.3	162	1.32	–
20.8	28.4	O=C(Nc1ccc([N+](=O)[O-])cc1)C(c1ccccc1)N(C(=O)C(F)(F)F)c1ccccc1 (centres undefined)	1460	540.3	23.9	70.3	–
125	164	O=C(Nc1ccc([N+](=O)[O-])cc1)C(c1ccccc1)N(C(=O)CCC(=O)N(c1ccccc1)C(C(=O)Nc1ccc([N+](=O)[O-])cc1)c1ccccc1)c1ccccc1 (centres undefined)	195	141.4	137	1.56	–
9.4	8	Cc1ccc(N(C(=O)c2ccc(C(F)(F)F)cc2)C(C(=O)Nc2ccc([N+](=O)[O-])cc2)c2ccccc2)cc1 (centres undefined)	28.6	14.9	10.3	3.04	–
8	12	O=C(Nc1ccc([N+](=O)[O-])cc1)C(c1ccccc1)N(C(=O)c1ccc(C(F)(F)F)cc1)c1ccccc1 (centres undefined)	46	26.9	11.6	5.75	–
19.5	12.9	O=C(Nc1ccc([N+](=O)[O-])cc1)C(c1ccccc1)N(C(=O)/C=C/c1ccccc1)c1ccccc1 (centres undefined)	29.1	4.8	13	1.49	–
180	181	O=C(Nc1ccc([N+](=O)[O-])cc1)C(c1ccccc1)N(C(=O)c1ccccc1[N+](=O)[O-])c1ccc(I)cc1 (centres undefined)	318	188.3	182	1.77	–
153	295	Cc1ccc(N(C(=O)c2ccccc2[N+](=O)[O-])C(C(=O)Nc2ccc([N+](=O)[O-])cc2)c2ccccc2)cc1 (centres undefined)	499	305.4	182	3.25	–
76.1	84.7	O=C(Nc1ccc([N+](=O)[O-])cc1)C(c1ccc(Br)cc1)N(C(=O)c1ccccc1[N+](=O)[O-])c1ccccc1 (centres undefined)	233	12.7	82.1	3.06	–
